Data published in ChEMBL document CHEMBL4507316 (2021).

How the values were obtained:
[1] = biological target: Histamine H1 receptor (Homo sapiens) (UniProt P35367); conditions: Compound concentration 10.0 uM
[2] = biological target: Activin receptor type-1B (Homo sapiens) (UniProt P36896); assay: ACV-R1B ProQinase selectivity panel; conditions: Compound concentration 1.0 uM
[3] = biological target: Protein kinase C beta type (Homo sapiens) (UniProt P05771); assay: PKC-beta1 ProQinase selectivity panel; conditions: Compound concentration 1.0 uM
[4] = biological target: BDNF/NT-3 growth factors receptor (Homo sapiens) (UniProt Q16620); assay: TRK-B ProQinase selectivity panel; conditions: Compound concentration 1.0 uM
Sequence of BDNF/NT-3 growth factors receptor (Homo sapiens) (Q16620 32-822 limits assumed): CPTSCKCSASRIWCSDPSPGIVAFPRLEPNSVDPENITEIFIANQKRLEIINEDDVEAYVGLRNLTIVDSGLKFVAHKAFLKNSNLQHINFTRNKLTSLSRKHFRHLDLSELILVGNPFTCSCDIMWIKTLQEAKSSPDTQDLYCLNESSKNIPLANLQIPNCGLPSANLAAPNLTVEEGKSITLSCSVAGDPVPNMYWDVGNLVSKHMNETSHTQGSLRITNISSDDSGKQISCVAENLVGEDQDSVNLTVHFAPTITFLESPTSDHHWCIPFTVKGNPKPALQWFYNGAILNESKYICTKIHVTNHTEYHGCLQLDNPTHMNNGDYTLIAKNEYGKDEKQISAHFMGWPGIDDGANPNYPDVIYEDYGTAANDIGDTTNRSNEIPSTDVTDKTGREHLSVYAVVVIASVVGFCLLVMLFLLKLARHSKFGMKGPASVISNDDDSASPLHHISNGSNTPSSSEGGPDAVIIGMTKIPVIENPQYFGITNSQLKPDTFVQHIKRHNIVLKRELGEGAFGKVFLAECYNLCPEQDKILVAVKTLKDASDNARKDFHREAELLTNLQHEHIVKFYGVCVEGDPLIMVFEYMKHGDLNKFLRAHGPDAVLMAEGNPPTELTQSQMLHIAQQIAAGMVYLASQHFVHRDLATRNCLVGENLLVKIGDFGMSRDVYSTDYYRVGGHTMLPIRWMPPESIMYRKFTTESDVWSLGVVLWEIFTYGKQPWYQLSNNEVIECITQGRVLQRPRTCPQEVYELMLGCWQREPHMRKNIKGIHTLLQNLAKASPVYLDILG

[5] = biological target: Phosphorylase b kinase gamma catalytic chain, liver/testis isoform (Homo sapiens) (UniProt P15735); assay: PHKG2 ProQinase selectivity panel; conditions: Compound concentration 1.0 uM
[6] = biological target: Serine/threonine-protein kinase MRCK beta (Homo sapiens) (UniProt Q9Y5S2); assay: CDC42BPB ProQinase selectivity panel; conditions: Compound concentration 1.0 uM
[7] = biological target: Mitogen-activated protein kinase 14 (Homo sapiens) (UniProt Q16539); assay: p38-alpha ProQinase selectivity panel; conditions: Compound concentration 1.0 uM
[8] = biological target: Tyrosine-protein kinase ABL2 (Homo sapiens) (UniProt P42684); assay: ABL2 ProQinase selectivity panel; conditions: Compound concentration 1.0 uM
[9] = system: Tyrosine-protein kinase ABL1 (Homo sapiens), P00519 [F317I]; assay: ABL1 F317I ProQinase selectivity panel; conditions: Compound concentration 1.0 uM
[10] = biological target: Serine/threonine-protein kinase TBK1 (Homo sapiens) (UniProt Q9UHD2); assay: TBK1 ProQinase selectivity panel; conditions: Compound concentration 1.0 uM
[11] = biological target: Death-associated protein kinase 2 (Homo sapiens) (UniProt Q9UIK4); assay: DAPK2 ProQinase selectivity panel; conditions: Compound concentration 1.0 uM
[12] = biological target: SRSF protein kinase 1 (Homo sapiens) (UniProt Q96SB4); assay: SRPK1 ProQinase selectivity panel; conditions: Compound concentration 1.0 uM
Sequence of SRSF protein kinase 1 (Homo sapiens) (Q96SB4 whole entry): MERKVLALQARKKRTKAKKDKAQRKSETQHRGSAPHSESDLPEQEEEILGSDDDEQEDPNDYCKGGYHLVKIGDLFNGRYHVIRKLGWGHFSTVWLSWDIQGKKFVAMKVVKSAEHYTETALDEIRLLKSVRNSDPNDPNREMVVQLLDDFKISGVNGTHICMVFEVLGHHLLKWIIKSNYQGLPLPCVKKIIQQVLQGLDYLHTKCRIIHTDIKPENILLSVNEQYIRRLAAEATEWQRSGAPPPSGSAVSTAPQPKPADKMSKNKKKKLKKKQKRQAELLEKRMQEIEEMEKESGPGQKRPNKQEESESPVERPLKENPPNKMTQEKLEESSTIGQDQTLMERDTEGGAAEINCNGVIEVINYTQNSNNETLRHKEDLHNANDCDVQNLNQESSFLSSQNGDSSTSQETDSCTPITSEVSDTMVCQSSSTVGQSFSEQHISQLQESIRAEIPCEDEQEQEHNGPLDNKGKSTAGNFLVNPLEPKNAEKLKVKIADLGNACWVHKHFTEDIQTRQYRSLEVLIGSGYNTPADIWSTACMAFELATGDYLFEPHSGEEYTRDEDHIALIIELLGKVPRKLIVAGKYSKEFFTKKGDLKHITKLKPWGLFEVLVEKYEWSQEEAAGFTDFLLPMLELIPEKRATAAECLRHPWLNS

[13] = biological target: Interleukin-1 receptor-associated kinase 1 (Homo sapiens) (UniProt P51617); assay: IRAK1 ProQinase selectivity panel; conditions: Compound concentration 1.0 uM
[14] = biological target: Hepatocyte growth factor receptor (Homo sapiens) (UniProt P08581); assay: MET wt ProQinase selectivity panel; conditions: Compound concentration 1.0 uM
[15] = system: Leucine-rich repeat serine/threonine-protein kinase 2 (Homo sapiens), Q5S007 [I2020T]; assay: LRRK2 I2020T ProQinase selectivity panel; conditions: Compound concentration 1.0 uM
[16] = biological target: Sigma non-opioid intracellular receptor 1 (Homo sapiens) (UniProt Q99720); conditions: Compound concentration 10.0 uM
[17] = biological target: Sodium-dependent noradrenaline transporter (Homo sapiens) (UniProt P23975); conditions: Compound concentration 10.0 uM
[18] = biological target: Protein-tyrosine kinase 2-beta (Homo sapiens) (UniProt Q14289); assay: PYK2 ProQinase selectivity panel; conditions: Compound concentration 1.0 uM
[19] = biological target: Protein kinase C delta type (Homo sapiens) (UniProt Q05655); assay: PKC-delta ProQinase selectivity panel; conditions: Compound concentration 1.0 uM
[20] = biological target: Muscarinic acetylcholine receptor M2 (Homo sapiens) (UniProt P08172); conditions: Compound concentration 10.0 uM
Sequence of Muscarinic acetylcholine receptor M2 (Homo sapiens) (P08172 whole entry): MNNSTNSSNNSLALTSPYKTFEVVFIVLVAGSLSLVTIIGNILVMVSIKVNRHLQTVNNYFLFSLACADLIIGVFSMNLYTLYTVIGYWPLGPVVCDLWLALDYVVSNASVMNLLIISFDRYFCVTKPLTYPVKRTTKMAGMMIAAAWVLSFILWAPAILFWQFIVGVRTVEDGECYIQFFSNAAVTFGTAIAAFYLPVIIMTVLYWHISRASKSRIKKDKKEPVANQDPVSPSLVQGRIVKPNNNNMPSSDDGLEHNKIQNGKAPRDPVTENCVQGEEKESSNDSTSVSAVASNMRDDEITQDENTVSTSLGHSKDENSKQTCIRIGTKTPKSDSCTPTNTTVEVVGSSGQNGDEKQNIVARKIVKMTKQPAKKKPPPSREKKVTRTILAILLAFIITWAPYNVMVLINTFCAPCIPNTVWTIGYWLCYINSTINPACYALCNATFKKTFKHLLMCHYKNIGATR

[21] = system: Platelet-derived growth factor receptor alpha (Homo sapiens), P16234 [V561D]; assay: PDGFR-alpha V561D ProQinase selectivity panel; conditions: Compound concentration 1.0 uM
[22] = biological target: 5-hydroxytryptamine receptor 2B (Homo sapiens, UniProt P41595); assay: GPCRScan assay: inhibition of 5-HT2B; set-up: radioligand conc. used [nm] 1.0 – 2.0, parental cells stable HEK
Sequence of 5-hydroxytryptamine receptor 2B (P41595 whole entry): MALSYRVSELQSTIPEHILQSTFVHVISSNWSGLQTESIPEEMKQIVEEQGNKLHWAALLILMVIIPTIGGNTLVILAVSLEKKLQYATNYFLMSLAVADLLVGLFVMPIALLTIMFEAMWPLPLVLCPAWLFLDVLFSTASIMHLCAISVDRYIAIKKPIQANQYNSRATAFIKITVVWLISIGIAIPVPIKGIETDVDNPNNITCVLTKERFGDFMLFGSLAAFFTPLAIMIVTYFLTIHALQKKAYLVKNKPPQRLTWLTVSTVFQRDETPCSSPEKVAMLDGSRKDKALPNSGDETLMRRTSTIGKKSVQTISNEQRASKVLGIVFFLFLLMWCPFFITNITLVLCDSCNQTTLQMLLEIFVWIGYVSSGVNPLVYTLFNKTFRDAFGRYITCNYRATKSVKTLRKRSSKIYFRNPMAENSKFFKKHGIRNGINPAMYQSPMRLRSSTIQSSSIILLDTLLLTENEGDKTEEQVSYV

[23] = system: Hepatocyte growth factor receptor (Homo sapiens), P08581 [M1250T]; assay: MET M1250T ProQinase selectivity panel; conditions: Compound concentration 1.0 uM
[24] = biological target: Eukaryotic translation initiation factor 2-alpha kinase 3 (Homo sapiens) (UniProt Q9NZJ5); assay: EIF2AK3 ProQinase selectivity panel; conditions: Compound concentration 1.0 uM
[25] = biological target: Serine/threonine-protein kinase PAK 5 (Homo sapiens) (UniProt Q9P286); assay: PAK7 ProQinase selectivity panel; conditions: Compound concentration 1.0 uM
[26] = biological target: MAP/microtubule affinity-regulating kinase 3 (Homo sapiens) (UniProt P27448); assay: MARK3 ProQinase selectivity panel; conditions: Compound concentration 1.0 uM
[27] = biological target: Receptor-type tyrosine-protein kinase FLT3 (Homo sapiens) (UniProt P36888); assay: FLT3 wt ProQinase selectivity panel; conditions: Compound concentration 1.0 uM
[28] = biological target: Fibroblast growth factor receptor 1 (Homo sapiens) (UniProt P11362); assay: FGF-R1 wt ProQinase selectivity panel; conditions: Compound concentration 1.0 uM
[29] = biological target: Cyclin-dependent kinase 5/CDK5 activator 1 (Homo sapiens) (UniProt Q00535+Q15078); assay: CDK5/p25NCK ProQinase selectivity panel; format: protein-complex assay; conditions: Compound concentration 1.0 uM
[30] = biological target: Serine/threonine-protein kinase PAK 3 (Homo sapiens) (UniProt O75914); assay: PAK3 ProQinase selectivity panel; conditions: Compound concentration 1.0 uM
Sequence of Serine/threonine-protein kinase PAK 3 (Homo sapiens) (O75914 whole entry, looked up): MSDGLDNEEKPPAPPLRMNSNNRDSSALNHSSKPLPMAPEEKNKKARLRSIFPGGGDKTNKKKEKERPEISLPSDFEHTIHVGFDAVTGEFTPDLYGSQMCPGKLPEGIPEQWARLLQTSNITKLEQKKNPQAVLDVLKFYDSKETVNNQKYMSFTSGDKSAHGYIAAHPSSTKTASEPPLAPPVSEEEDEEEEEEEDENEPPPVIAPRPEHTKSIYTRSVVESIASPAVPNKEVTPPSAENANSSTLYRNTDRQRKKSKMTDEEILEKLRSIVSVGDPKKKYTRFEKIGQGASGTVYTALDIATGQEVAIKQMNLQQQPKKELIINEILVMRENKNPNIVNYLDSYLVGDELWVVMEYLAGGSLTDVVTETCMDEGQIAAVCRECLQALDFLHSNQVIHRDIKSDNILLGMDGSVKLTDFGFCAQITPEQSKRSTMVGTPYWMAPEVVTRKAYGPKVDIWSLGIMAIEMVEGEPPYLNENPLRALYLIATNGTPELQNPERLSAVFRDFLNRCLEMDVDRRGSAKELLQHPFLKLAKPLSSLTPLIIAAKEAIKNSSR

[31] = biological target: Casein kinase II subunit alpha' (Homo sapiens) (UniProt P19784); assay: CK2-alpha2 ProQinase selectivity panel; conditions: Compound concentration 1.0 uM
Sequence of Casein kinase II subunit alpha' (Homo sapiens) (P19784 whole entry, looked up): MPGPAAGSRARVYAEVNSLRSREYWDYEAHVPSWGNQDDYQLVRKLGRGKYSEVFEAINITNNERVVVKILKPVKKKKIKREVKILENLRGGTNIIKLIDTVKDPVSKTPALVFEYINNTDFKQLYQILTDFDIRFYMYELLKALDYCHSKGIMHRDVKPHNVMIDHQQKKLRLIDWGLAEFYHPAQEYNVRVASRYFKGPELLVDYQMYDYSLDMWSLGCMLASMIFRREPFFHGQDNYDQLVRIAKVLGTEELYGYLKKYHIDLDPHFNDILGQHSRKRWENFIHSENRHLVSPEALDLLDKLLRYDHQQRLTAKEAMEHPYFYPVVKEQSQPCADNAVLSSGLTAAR

[32] = biological target: Eukaryotic elongation factor 2 kinase (Homo sapiens) (UniProt O00418); assay: EEF2K ProQinase selectivity panel; conditions: Compound concentration 1.0 uM
[33] = biological target: Mitogen-activated protein kinase kinase kinase 9 (Homo sapiens) (UniProt P80192); assay: MAP3K9 ProQinase selectivity panel; conditions: Compound concentration 1.0 uM
[34] = biological target: Glycogen synthase kinase-3 alpha (Homo sapiens) (UniProt P49840); assay: GSK3-alpha ProQinase selectivity panel; conditions: Compound concentration 1.0 uM
Sequence of Glycogen synthase kinase-3 alpha (Homo sapiens) (P49840 2-483 limits assumed): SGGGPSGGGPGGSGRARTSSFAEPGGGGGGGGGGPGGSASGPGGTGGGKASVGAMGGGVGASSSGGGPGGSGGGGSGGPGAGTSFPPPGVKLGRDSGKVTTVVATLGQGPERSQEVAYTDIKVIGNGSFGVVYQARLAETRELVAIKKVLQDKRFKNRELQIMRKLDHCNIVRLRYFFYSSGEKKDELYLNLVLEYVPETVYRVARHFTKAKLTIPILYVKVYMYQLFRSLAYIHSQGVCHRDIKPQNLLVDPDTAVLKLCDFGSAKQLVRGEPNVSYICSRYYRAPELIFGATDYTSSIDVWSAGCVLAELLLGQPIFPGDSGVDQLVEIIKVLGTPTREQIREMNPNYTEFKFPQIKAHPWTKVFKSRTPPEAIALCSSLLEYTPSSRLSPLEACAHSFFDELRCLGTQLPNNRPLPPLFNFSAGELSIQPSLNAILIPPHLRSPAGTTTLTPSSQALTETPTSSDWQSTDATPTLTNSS

[35] = biological target: Tyrosine-protein kinase Srms (Homo sapiens) (UniProt Q9H3Y6); assay: SRMS ProQinase selectivity panel; conditions: Compound concentration 1.0 uM
[36] = biological target: Proto-oncogene tyrosine-protein kinase receptor Ret (Homo sapiens) (UniProt P07949); assay: RET wt ProQinase selectivity panel; conditions: Compound concentration 1.0 uM
[37] = biological target: Sodium-dependent serotonin transporter (Homo sapiens) (UniProt P31645); conditions: Compound concentration 10.0 uM
[38] = biological target: Sigma intracellular receptor 2 (Homo sapiens, UniProt Q5BJF2); conditions: Compound concentration 10.0 uM
Sequence of Sigma intracellular receptor 2 (Q5BJF2 whole entry): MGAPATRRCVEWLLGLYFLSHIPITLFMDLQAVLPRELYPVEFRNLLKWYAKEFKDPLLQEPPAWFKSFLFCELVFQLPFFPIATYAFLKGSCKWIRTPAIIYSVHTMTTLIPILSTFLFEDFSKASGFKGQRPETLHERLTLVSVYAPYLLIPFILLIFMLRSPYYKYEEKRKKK

[39] = biological target: 5-hydroxytryptamine receptor 2C (Homo sapiens) (UniProt P28335); conditions: Compound concentration 10.0 uM
[40] = biological target: Serine/threonine-protein kinase 4 (Homo sapiens) (UniProt Q13043); assay: MST1 ProQinase selectivity panel; conditions: Compound concentration 1.0 uM
[41] = biological target: Serine/threonine-protein kinase Nek7 (Homo sapiens) (UniProt Q8TDX7); assay: NEK7 ProQinase selectivity panel; conditions: Compound concentration 1.0 uM
Sequence of Serine/threonine-protein kinase Nek7 (Homo sapiens) (Q8TDX7 whole entry, looked up): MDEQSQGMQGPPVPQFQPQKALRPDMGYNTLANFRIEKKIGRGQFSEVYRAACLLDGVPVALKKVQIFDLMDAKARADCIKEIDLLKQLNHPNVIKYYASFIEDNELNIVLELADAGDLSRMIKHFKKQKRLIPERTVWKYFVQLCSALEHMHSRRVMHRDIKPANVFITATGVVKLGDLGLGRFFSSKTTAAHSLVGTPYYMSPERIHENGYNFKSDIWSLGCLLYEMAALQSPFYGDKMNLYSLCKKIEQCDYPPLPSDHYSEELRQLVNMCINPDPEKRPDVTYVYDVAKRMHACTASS

[42] = biological target: Ephrin type-A receptor 3 (Homo sapiens) (UniProt P29320); assay: EPHA3 ProQinase selectivity panel; conditions: Compound concentration 1.0 uM
[43] = biological target: 3-phosphoinositide-dependent protein kinase 1 (Homo sapiens) (UniProt O15530); assay: PDK1 ProQinase selectivity panel; conditions: Compound concentration 1.0 uM
[44] = system: Tyrosine-protein kinase ABL1 (Homo sapiens), P00519 [T315I]; assay: ABL1 T315I ProQinase selectivity panel; conditions: Compound concentration 1.0 uM
[45] = biological target: Megakaryocyte-associated tyrosine-protein kinase (Homo sapiens) (UniProt P42679); assay: MATK ProQinase selectivity panel; conditions: Compound concentration 1.0 uM
[46] = biological target: Tyrosine-protein kinase JAK1 (Homo sapiens) (UniProt P23458); assay: JAK1 ProQinase selectivity panel; conditions: Compound concentration 1.0 uM
[47] = biological target: Calcium/calmodulin-dependent protein kinase kinase 1 (Homo sapiens) (UniProt Q8N5S9); assay: CAMKK1 ProQinase selectivity panel; conditions: Compound concentration 1.0 uM
[48] = biological target: G protein-coupled receptor kinase 3 (Homo sapiens) (UniProt P35626); assay: GRK3 ProQinase selectivity panel; conditions: Compound concentration 1.0 uM
Sequence of G protein-coupled receptor kinase 3 (Homo sapiens) (P35626 whole entry): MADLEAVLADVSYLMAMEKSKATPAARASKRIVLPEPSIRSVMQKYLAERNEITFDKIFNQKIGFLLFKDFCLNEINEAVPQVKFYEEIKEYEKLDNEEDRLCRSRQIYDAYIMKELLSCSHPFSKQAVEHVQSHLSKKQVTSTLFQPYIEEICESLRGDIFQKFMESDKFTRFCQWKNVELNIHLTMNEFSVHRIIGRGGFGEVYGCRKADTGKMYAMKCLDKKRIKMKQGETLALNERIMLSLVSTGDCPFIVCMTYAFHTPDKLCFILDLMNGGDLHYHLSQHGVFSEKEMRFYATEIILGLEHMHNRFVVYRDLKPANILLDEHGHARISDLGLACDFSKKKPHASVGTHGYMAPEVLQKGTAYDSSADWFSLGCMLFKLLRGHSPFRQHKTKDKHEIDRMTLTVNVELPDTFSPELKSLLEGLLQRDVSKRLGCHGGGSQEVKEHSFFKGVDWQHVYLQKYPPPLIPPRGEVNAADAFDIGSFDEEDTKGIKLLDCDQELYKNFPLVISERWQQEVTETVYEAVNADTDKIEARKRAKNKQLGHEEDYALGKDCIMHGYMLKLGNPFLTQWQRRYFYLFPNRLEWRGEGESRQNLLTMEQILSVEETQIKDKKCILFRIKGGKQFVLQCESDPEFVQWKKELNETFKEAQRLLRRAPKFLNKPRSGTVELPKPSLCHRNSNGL

inhibition [1]: 12.7%
% Residual activity with Skepinone-L [2]: 77%
% Residual activity with Skepinone-L [3]: 103%
% Residual activity with Skepinone-L [4]: 77%
% Residual activity with Skepinone-L [5]: 73%
% Residual activity with Skepinone-L [6]: 83%
% Residual activity with Skepinone-L [7]: 0%
% Residual activity with Skepinone-L [8]: 99%
% Residual activity with Skepinone-L [9]: 102%
% Residual activity with Skepinone-L [10]: 87%
% Residual activity with Skepinone-L [12]: 100%
% Residual activity with Skepinone-L [13]: 101%
% Residual activity with Skepinone-L [14]: 108%
% Residual activity with Skepinone-L [15]: 94%
inhibition [16]: 48.5%
inhibition [17]: 29.4%
% Residual activity with Skepinone-L [18]: 102%
% Residual activity with Skepinone-L [19]: 104%
inhibition [20]: 40%
% Residual activity with Skepinone-L [21]: 91%
Ki ([22]; read-out: Ki): 172 nM
Ki ([22]; read-out: pKi (converted)): 166 nM
% Residual activity with Skepinone-L [23]: 100%
% Residual activity with Skepinone-L [24]: 95%
% Residual activity with Skepinone-L [25]: 87%
% Residual activity with Skepinone-L [26]: 95%
% Residual activity with Skepinone-L [27]: 106%
% Residual activity with Skepinone-L [28]: 117%
% Residual activity with Skepinone-L [29]: 99%
% Residual activity with Skepinone-L [30]: 107%
% Residual activity with Skepinone-L [31]: 87%
% Residual activity with Skepinone-L [32]: 88%
% Residual activity with Skepinone-L [33]: 90%
% Residual activity with Skepinone-L [34]: 93%
% Residual activity with Skepinone-L [35]: 95%
% Residual activity with Skepinone-L [36]: 102%
inhibition [37]: 20.7%
inhibition [38]: 53.1%
inhibition [39]: 24%
% Residual activity with Skepinone-L [40]: 71%
% Residual activity with Skepinone-L [41]: 83%
% Residual activity with Skepinone-L [42]: 107%
% Residual activity with Skepinone-L [43]: 97%
% Residual activity with Skepinone-L [44]: 93%
% Residual activity with Skepinone-L [45]: 111%
% Residual activity with Skepinone-L [46]: 93%
% Residual activity with Skepinone-L [47]: 83%
% Residual activity with Skepinone-L [48]: 95%
SMILES: O=C1c2ccc(Nc3ccc(F)cc3F)cc2CCc2ccc(OC[C@H](O)CO)cc21 [Skepinone-L]
% Residual activity with Skepinone-L [11]: 88%
